Data reported in patent US8802597B2, “Herbicidal pyrimidines” (E I du Pont de Nemours and Company, priority 2003, dated 2014).

Columns and labels:
Assay in all cases: Test G pre/postemergence
Assay type in all cases: in vivo
[1] = test system: common purslane (Portulaca oleracea)
Method in brief: (§1)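 Visual scores from 0 (no effect) to 100 (complete control) were assigned relative to untreated controls 12 to 21 days after treatment. Compounds, formulated in a non-phytotoxic solvent mixture with surfactant, were applied preemergence to planted seed or postemergence to plants at the 1- to 4-leaf stage (2 to 18 cm).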

[2] = test system: Russian thistle (Salsola kali)
Method in brief: as §1

kochia (Kochia scoparia) = test system: kochia (Kochia scoparia)
Method in brief: as §1

[3] = Postemergence, 250 g ai/ha, scale 0 to 100
[4] = Postemergence, 16 g ai/ha, scale 0 to 100
[5] = Postemergence, 31 g ai/ha, scale 0 to 100
[6] = Postemergence, 62 g ai/ha, scale 0 to 100
[7] = Postemergence, 125 g ai/ha, scale 0 to 100
[8] = Preemergence, 16 g ai/ha, scale 0-100
[9] = Preemergence, 31 g ai/ha, scale 0-100
[10] = Preemergence, 62 g ai/ha, scale 0-100
[11] = Preemergence, 125 g ai/ha, scale 0-100
[12] = Preemergence, 250 g ai/ha, scale 0-100

Nc1nc(C2CC2)nc(C(=O)OCc2ccccc2)c1Br [Compound 22, phenylmethyl 6-amino-5-bromo-2-cyclopropyl-4-pyrimidinecarboxylate]
Plant response rating, Purslane [1, 3]: 98
Plant response rating, Purslane [1, 4]: 50
Plant response rating, Purslane [1, 5]: 55
Plant response rating, Purslane [1, 6]: 85
Plant response rating, Purslane [1, 7]: 95
Plant response rating, Purslane [1, 8]: 0
Plant response rating, Purslane [1, 9]: 0
Plant response rating, Purslane [1, 10]: 50
Plant response rating, Purslane [1, 11]: 70
Plant response rating, Purslane [1, 12]: 75
Plant response rating, Russian Thistle [2, 3]: 100
Plant response rating, Russian Thistle [2, 4]: 95
Plant response rating, Russian Thistle [2, 5]: 100
Plant response rating, Russian Thistle [2, 6]: 100
Plant response rating, Russian Thistle [2, 7]: 100
Plant response rating, Russian Thistle [2, 8]: 65
Plant response rating, Russian Thistle [2, 9]: 75
Plant response rating, Russian Thistle [2, 10]: 95
Plant response rating, Russian Thistle [2, 11]: 100
Plant response rating, Russian Thistle [2, 12]: 100
Plant response rating, Kochia (kochia (Kochia scoparia); [3]): 100
Plant response rating, Kochia (kochia (Kochia scoparia); [4]): 98
Plant response rating, Kochia (kochia (Kochia scoparia); [5]): 98
Plant response rating, Kochia (kochia (Kochia scoparia); [6]): 98
Plant response rating, Kochia (kochia (Kochia scoparia); [7]): 100
Plant response rating, Kochia (kochia (Kochia scoparia); [8]): 35
Plant response rating, Kochia (kochia (Kochia scoparia); [9]): 70
Plant response rating, Kochia (kochia (Kochia scoparia); [10]): 98
Plant response rating, Kochia (kochia (Kochia scoparia); [11]): 100
Plant response rating, Kochia (kochia (Kochia scoparia); [12]): 100
